Experimental data reported in patent publication US11761045B2, “Splice variants associated with neomorphic SF3B1 mutants” (Eisai R&D Management Co., Ltd., priority 2015, dated 2023).

Columns and labels:
Nalm-6 SF3B1^K700E cells = assay: Splice variant levels in Nalm-6 isogenic cells by RNA-Seq; format: cell-based, human; conditions: additional compounds, FIG. 19
Experimental: (§1) To investigate the broader activity of E7107 on normal and aberrant splicing, RNA from Nalm-6 isogenic cells treated for two and six hours at 15 nM was analyzed by NanoString®. […] Normal and aberrant splicing in the isogenic cell lines was also analyzed by RNA-Seq following treatment with one of additional compounds having formulas 1 or 2. […] For the RNA-Seq analysis, cells were washed with PBS after treatment with E7107 or other test compound, and RNA was isolated using PureLink (Life Technology) as reported in the manufacturer's manual. cDNA library preparation, sequencing and raw read filtering was performed as described in Ren, S. et al. “RNA-Seq analysis of prostate cancer in the Chinese population identifies recurrent gene fusions, cancer-associated long noncoding RNAs and aberrant alternative splicings.” Cell Res 22, 806-821, doi:10.1038/cr.2012.30 (2012).

Nalm-6 SF3B1^K700K cells = assay: as above; format: cell-based, human; conditions: additional compounds, FIG. 19
Experimental: as §1

Structure (SMILES) | expression of WT-associated and MUT-associated RNA isoforms by RNA-Seq (Nalm-6 SF3B1^K700E cells) | expression of WT-associated and MUT-associated RNA isoforms by RNA-Seq (Nalm-6 SF3B1^K700K cells)
C/C(=C\C=C\[C@@H](C)c1ccccn1)[C@H]1OC(=O)C[C@H](O)CC[C@@](C)(O)[C@@H](OC(=O)N2CCN(C3CCCCCC3)CC2)/C=C/[C@@H]1C [Compound 1] | inhibited expression of both WT-associated and MUT-associated RNA isoforms | inhibited expression of both WT-associated and MUT-associated RNA isoforms
C/C(=C\C=C\[C@@H](C)c1ccccn1)[C@H]1OC(=O)C[C@H](O)CC[C@@](C)(O)[C@@H](OC(=O)N2CCN(C)CC2)/C=C/[C@@H]1C [Compound 2] | inhibited expression of both WT-associated and MUT-associated RNA isoforms | inhibited expression of both WT-associated and MUT-associated RNA isoforms
